Assay results published in paper PMC6704710, “Preclinical evaluation of 3D185, a novel potent inhibitor of FGFR1/2/3 and CSF-1R, in FGFR-dependent and macrophage-dominant cancer models” (Journal of Experimental & Clinical Cancer Research : CR, 2019).

Key:
Abl(h) = target: T1, Abl(h) (Homo sapiens, UniProt P00519); assay: Eurofins kinase panel; type: biochemical; details: read-out: Inhibition rate (%)
T1 construct: purchased Eurofins (KinaseProfiler)

AMPKα2(h) = target: T2, AMPKα2(h) (Homo sapiens, UniProt P54646); assay: Eurofins kinase panel; type: biochemical; details: read-out: Inhibition rate (%)
T2 construct: purchased Eurofins (KinaseProfiler)

BrSK2(h) = target: T3, BrSK2(h) (Homo sapiens, UniProt Q8IWQ3); assay: Eurofins kinase panel; type: biochemical; details: read-out: Inhibition rate (%)
T3 construct: purchased Eurofins (KinaseProfiler)
T3 sequence (Q8IWQ3 1-736): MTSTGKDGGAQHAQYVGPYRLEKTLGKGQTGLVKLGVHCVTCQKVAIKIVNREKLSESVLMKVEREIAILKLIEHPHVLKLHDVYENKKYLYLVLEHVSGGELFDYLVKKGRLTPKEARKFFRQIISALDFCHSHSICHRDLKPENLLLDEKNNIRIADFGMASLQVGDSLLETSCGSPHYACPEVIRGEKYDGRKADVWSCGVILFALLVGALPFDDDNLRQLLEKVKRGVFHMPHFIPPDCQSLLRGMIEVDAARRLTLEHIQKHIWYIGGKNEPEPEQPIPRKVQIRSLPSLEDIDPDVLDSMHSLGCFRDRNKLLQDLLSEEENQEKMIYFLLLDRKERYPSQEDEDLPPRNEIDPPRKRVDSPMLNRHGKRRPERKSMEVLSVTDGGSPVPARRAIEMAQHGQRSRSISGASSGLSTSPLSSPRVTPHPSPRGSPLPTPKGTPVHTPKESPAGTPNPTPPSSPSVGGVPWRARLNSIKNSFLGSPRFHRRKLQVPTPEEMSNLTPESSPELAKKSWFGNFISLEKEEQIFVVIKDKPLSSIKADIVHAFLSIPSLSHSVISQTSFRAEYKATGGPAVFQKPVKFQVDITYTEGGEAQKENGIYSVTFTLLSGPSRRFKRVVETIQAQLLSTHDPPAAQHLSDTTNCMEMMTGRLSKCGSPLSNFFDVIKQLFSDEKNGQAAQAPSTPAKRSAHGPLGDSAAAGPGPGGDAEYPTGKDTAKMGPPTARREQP

B-Raf(V599E)(h) = target: T4, B-Raf(V599E)(h) (Homo sapiens, UniProt P15056, V600E); assay: Eurofins kinase panel; type: biochemical; details: read-out: Inhibition rate (%)
T4 construct: purchased Eurofins (KinaseProfiler)

ChaK1(h) = target: T5, ChaK1(h) (Homo sapiens, UniProt Q96QT4); assay: Eurofins kinase panel; type: biochemical; details: read-out: Inhibition rate (%)
T5 construct: purchased Eurofins (KinaseProfiler)

GSK3α(h) = target: T6, GSK3α(h) (Homo sapiens, UniProt P49840); assay: Eurofins kinase panel; type: biochemical; details: read-out: Inhibition rate (%)
T6 construct: purchased Eurofins (KinaseProfiler)

IRR(h) = target: T7, IRR(h) (Homo sapiens, UniProt P14616); assay: Eurofins kinase panel; type: biochemical; details: read-out: Inhibition rate (%)
T7 construct: purchased Eurofins (KinaseProfiler)

MAPKAP-K2(h) = target: T8, MAPKAP-K2(h) (Homo sapiens, UniProt P49137); assay: Eurofins kinase panel; type: biochemical; details: read-out: Inhibition rate (%)
T8 construct: purchased Eurofins (KinaseProfiler)

PKR(h) = target: T9, PKR(h) (Homo sapiens, UniProt P19525); assay: Eurofins kinase panel; type: biochemical; details: read-out: Inhibition rate (%)
T9 construct: purchased Eurofins (KinaseProfiler)

FGFR4 = target: T10, FGFR4 (Homo sapiens, UniProt P22455); assay: Kinase inhibition assay (ELISA); type: biochemical; details: mean ± SD
T10 construct: purchased Eurofins (Fremont, United States)

M-NFS-60 = assay: Cell proliferation assay; type: cell-based, mouse; details: Mus musculus; 72 h, mean ± SD
Experimental: (§1) The cancer cell lines indicated in Figure 3 were seeded in 96-well plates at a low density in growth medium. The next day, appropriate controls or the designated concentrations of the compounds were added to each well, and the cells were incubated for 72 h. HUVECs (passage 3) were seeded in 96-well plates in growth medium overnight and transferred to serum-free medium for 24 h. The following day, appropriate controls or the designated concentrations of the compounds were added to each well, and 100 ng/mL growth factor (bFGF or VEGF) was added to the indicated wells. The cells were incubated for 48 h. Finally, cell proliferation was determined using a sulforhodamine B (SRB) assay or a cell counting kit-8 (CCK-8) assay. […] IC50 values for proliferation curves were calculated using a 4-parameter logistic nonlinear regression model with SoftMax Pro Software (Molecular Devices, San Jose, USA).

[1] = system: 20 additional tumor cell lines with low expression or activation of FGFR and CSF-1R; assay: Cell proliferation assay, non-dependent panel; type: cell-based; details: 20 cell lines
Experimental: as §1

PBMC (CSF-2) = assay: Macrophage survival (CCK-8); type: cell-based; details: Homo sapiens, 168 h, 7 days
Experimental: Murine bone marrow-derived macrophages (BMDMs) and PBMCs were used for cell viability studies. BMDMs were harvested by flushing the tibias and femurs of 6- to 8-week-old C57BL/6 mice and depleting red blood cells (RBCs) by RBC lysis (Biogems). For BMDM survival, the cells were cultured for 7 days in RPMI 1640 containing 10% fetal bovine serum (FBS), 100 U/mL penicillin, 100 μg/mL streptomycin and 100 ng/mL mouse CSF-1 (or CSF-2) with or without the tested compounds. PBMCs were obtained from HemaCare and cultured for 7 days in RPMI 1640 containing 10% fetal bovine serum (FBS), 100 U/mL penicillin, 100 μg/mL streptomycin and 100 ng/mL human CSF-1 (or CSF-2) with or without the tested compounds. Cell viability was measured using the CCK-8 assay. For IL-4/IL-13-induced macrophage survival analysis, viable cells were counted by trypan blue exclusion.

[2] = system: CSF-1-differentiated macrophages induced RT112 cell migration; assay: Tumor cell migration assay (Transwell co-culture); type: cell-based, human; details: 25 nM, 24 h

T8 sequence (P49137 whole entry): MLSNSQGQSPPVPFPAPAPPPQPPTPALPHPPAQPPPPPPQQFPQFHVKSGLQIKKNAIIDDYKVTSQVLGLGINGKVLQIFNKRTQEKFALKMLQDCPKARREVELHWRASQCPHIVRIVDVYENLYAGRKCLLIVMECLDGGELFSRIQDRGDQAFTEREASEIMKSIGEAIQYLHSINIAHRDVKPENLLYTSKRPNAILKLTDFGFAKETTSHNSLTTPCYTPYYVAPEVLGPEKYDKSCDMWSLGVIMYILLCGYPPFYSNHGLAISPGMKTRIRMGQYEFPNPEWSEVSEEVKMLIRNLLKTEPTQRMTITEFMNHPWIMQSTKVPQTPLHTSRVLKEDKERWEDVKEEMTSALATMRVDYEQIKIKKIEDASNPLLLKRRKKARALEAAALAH
T2 sequence (P54646 whole entry): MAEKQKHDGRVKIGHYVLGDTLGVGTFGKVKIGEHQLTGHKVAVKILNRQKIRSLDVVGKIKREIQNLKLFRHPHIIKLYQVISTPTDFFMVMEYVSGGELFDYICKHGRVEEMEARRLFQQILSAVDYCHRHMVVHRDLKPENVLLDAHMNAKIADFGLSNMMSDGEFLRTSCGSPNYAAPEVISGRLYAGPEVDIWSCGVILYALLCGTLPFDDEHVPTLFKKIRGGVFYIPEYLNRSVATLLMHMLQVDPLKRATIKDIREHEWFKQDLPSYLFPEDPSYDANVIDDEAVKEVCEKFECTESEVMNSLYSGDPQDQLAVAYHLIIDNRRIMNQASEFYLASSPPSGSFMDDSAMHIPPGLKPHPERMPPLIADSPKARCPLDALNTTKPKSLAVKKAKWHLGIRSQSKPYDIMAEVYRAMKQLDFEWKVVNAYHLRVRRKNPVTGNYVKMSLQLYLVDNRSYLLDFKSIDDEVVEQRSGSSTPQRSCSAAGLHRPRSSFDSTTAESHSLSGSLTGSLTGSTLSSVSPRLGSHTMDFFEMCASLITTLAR
T2 sequence (Q9Y478 whole entry partner): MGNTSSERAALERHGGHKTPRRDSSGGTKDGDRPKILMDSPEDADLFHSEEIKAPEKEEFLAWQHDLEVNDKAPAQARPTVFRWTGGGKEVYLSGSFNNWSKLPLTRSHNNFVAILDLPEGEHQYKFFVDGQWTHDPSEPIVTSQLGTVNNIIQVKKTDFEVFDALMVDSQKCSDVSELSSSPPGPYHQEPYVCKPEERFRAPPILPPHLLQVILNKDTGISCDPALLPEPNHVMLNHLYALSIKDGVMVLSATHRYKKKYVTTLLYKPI
T2 sequence (P54619 whole entry partner): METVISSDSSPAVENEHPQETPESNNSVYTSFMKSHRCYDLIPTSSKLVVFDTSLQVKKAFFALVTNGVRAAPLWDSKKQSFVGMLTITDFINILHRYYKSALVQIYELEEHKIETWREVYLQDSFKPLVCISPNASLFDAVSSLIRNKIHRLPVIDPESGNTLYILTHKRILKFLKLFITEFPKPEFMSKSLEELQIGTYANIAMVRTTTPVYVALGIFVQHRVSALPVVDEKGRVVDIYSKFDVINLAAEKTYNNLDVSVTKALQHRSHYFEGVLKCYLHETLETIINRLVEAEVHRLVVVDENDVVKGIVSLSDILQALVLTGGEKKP
T4 sequence (P15056 417-766 V600E limits assumed): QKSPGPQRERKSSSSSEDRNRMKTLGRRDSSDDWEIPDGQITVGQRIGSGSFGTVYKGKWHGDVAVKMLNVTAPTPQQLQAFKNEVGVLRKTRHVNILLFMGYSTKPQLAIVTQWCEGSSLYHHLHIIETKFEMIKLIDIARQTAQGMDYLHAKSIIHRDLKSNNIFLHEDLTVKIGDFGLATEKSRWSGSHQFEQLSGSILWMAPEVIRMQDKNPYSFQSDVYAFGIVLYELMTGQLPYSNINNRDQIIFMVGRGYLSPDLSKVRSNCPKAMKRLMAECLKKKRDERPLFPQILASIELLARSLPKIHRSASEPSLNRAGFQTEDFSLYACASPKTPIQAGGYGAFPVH
T7 sequence (P14616 27-1297): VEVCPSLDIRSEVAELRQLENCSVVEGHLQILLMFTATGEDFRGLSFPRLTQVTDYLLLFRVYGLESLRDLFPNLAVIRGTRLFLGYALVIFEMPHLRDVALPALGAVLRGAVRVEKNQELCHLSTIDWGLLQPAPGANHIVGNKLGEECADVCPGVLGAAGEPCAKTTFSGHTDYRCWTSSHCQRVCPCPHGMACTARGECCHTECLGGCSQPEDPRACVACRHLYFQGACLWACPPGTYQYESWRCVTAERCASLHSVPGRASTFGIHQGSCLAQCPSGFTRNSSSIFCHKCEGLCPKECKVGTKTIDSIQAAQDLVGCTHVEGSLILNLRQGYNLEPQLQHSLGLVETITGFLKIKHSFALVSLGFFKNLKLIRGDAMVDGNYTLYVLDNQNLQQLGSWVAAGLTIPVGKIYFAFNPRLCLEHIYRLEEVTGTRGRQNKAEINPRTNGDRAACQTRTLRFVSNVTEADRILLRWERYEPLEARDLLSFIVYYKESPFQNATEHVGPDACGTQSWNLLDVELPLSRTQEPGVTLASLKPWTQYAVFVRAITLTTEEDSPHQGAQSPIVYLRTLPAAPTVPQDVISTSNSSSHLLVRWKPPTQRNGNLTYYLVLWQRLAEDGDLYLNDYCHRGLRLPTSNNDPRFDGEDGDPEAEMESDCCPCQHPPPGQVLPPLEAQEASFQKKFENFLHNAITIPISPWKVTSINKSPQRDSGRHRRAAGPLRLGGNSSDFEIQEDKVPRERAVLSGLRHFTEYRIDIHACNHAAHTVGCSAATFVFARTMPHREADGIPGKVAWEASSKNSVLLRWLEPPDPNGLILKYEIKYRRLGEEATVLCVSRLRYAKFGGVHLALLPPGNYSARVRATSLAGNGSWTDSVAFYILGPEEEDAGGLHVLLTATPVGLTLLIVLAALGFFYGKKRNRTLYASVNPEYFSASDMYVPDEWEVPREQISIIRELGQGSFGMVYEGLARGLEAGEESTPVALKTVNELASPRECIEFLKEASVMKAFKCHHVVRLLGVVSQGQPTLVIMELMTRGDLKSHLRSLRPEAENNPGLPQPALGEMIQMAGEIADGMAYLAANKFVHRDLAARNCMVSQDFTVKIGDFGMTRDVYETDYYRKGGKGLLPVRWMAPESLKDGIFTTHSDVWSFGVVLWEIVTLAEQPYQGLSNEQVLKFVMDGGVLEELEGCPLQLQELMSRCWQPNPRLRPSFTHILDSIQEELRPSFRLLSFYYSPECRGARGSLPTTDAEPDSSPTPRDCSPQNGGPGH
T9 sequence (P19525 whole entry): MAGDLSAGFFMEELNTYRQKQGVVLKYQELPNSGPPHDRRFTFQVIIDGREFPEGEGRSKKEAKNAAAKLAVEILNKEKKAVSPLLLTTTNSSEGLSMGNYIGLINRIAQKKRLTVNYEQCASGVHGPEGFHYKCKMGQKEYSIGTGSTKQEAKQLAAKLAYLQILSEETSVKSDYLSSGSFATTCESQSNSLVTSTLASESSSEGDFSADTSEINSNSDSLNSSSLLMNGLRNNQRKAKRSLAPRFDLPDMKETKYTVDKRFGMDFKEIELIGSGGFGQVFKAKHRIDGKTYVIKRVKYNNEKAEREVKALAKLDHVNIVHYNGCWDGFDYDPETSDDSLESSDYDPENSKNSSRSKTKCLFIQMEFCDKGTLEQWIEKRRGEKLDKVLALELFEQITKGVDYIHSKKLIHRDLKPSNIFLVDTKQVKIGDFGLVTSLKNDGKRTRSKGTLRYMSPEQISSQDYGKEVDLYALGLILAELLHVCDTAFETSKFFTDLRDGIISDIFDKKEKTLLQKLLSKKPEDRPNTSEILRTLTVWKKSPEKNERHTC
T6 sequence (P49840 whole entry): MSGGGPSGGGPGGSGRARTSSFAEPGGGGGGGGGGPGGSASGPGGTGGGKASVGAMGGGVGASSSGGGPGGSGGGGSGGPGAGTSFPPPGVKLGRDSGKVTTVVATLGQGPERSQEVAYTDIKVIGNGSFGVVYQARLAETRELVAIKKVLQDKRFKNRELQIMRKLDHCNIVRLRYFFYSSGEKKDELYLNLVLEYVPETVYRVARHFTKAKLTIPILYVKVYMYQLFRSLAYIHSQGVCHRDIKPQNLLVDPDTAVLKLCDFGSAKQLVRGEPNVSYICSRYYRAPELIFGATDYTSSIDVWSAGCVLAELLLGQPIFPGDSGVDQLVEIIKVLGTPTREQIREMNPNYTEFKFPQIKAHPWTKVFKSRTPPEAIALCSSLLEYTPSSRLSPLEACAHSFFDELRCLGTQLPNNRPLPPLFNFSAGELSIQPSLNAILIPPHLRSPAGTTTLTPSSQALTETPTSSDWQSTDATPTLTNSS
T10 sequence (P22455 22-802): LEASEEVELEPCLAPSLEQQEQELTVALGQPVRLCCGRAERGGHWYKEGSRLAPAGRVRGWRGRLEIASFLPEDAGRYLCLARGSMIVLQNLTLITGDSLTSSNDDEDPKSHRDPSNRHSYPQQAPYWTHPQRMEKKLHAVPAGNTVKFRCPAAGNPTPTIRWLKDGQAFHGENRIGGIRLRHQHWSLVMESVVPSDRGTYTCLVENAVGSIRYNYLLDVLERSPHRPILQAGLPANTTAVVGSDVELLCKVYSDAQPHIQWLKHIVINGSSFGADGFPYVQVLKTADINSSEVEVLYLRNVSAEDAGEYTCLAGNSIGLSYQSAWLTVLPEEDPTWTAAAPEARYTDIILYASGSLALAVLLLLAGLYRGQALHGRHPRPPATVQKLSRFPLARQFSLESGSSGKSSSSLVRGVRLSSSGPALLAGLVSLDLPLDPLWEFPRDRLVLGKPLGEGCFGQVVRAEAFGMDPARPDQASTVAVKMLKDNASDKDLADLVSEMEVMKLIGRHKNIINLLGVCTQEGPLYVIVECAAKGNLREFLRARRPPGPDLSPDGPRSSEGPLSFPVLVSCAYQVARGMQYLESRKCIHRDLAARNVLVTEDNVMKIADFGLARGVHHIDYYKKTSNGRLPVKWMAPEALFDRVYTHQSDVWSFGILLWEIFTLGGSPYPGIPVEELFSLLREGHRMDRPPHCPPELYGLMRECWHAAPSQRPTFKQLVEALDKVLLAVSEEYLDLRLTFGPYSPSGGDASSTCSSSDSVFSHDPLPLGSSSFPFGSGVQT

For `COc1cc(OC)c(Cl)c(-c2ccc3c(NC(=O)c4ccc(N5CCNC(C)(C)C5)cc4)n[nH]c3n2)c1Cl` [3D185], the inhibition at 0.01 µM (Abl(h); 10 nM) was 3%, the inhibition at 0.1 µM (Abl(h); 100 nM) was 43% and the inhibition at 1 µM (Abl(h); 1000 nM) was 81%. It also gave an inhibition at 0.01 µM (AMPKα2(h); 10 nM) of -4%, an inhibition at 0.1 µM (AMPKα2(h); 100 nM) of -8% and an inhibition at 1 µM (AMPKα2(h); 1000 nM) of 9%. For the same compound, the inhibition at 0.01 µM (BrSK2(h); 10 nM) was 8%, the inhibition at 0.1 µM (BrSK2(h); 100 nM) was 5% and the inhibition at 1 µM (BrSK2(h); 1000 nM) was 11%. It also gave an inhibition at 0.01 µM (B-Raf(V599E)(h); 10 nM) of -1%, an inhibition at 0.1 µM (B-Raf(V599E)(h); 100 nM) of -6% and an inhibition at 1 µM (B-Raf(V599E)(h); 1000 nM) of 7%. For the same compound, the inhibition at 0.01 µM (ChaK1(h); 10 nM) was 2%, the inhibition at 0.1 µM (ChaK1(h); 100 nM) was -10% and the inhibition at 1 µM (ChaK1(h); 1000 nM) was 8%. For the same compound, the inhibition at 0.01 µM (GSK3α(h); 10 nM) was 10%, the inhibition at 0.1 µM (GSK3α(h); 100 nM) was 4% and the inhibition at 1 µM (GSK3α(h); 1000 nM) was -5%. The inhibition at 0.01 µM (IRR(h); 10 nM) was -5%, the inhibition at 0.1 µM (IRR(h); 100 nM) was 5% and the inhibition at 1 µM (IRR(h); 1000 nM) was 1%. The inhibition at 0.01 µM (MAPKAP-K2(h); 10 nM) was 0%, the inhibition at 0.1 µM (MAPKAP-K2(h); 100 nM) was 10% and the inhibition at 1 µM (MAPKAP-K2(h); 1000 nM) was 0%. It also gave an inhibition at 0.01 µM (PKR(h); 10 nM) of -4%, an inhibition at 0.1 µM (PKR(h); 100 nM) of -3% and an inhibition at 1 µM (PKR(h); 1000 nM) of 0%. It also gave an IC50 (FGFR4) of 51.4 nM, an IC50 (M-NFS-60) of 16.7 ± 2.5 nM and an IC50 [1] greater than 1000 nM. For the same compound, the IC50 (PBMC (CSF-2)) was greater than 1000 nM and the “effect on macrophage-induced RT112 cell migration” value [2] was “blocking most cell migration”.
